Experimental data as given in US5834259A, “Process and composition for preparing D-aspartic acid” (Monsanto Company, priority 1996, dated 1998).

Molecular target: T1, L-aspartate-α-decarboxylase (Escherichia coli, UniProt P0A790)
T1 construct: expressed in transfected cells; host or cells: E. coli W3110 transformed with pIF309 = strain NS3291 (ATCC 98675), whole cells
Experiment: Activity towards D/L-glutamate and D/L-alanine, D/L-aspartate as control (Example 8)
Format: biochemical, E. coli K12
Conditions: racemate substrate, pH 7.0
Method: D/L-aspartate was run as a control.
Substrates were prepared by dissolving solid amino acid racemate in approximately 75 ml deionized H2 O and adjusting the pH to 7.0 with 10N NaOH. The volume was then brought to 100 ml with deionized H2 O. The cells used were stored frozen for about 1 month and then thawed and stored in a refrigerator for about 1 month prior to running the experiments.
The reaction was run the same as described in the prior Examples. Samples of supernatant fluid, approximately 0.20 ml, were removed over time, centrifuged and stored frozen before analysis by HPLC as described in the prior Examples.

Compound	concentration in supernatant fluid (0 hr) [mg/mL]	concentration in supernatant fluid (3.5 hr) [mg/mL]	percent remaining (3.5 hr) [%]	concentration in supernatant fluid (8.5 hr) [mg/mL]	percent remaining (8.5 hr) [%]	concentration in supernatant fluid (24 hr) [mg/mL]	percent remaining (24 hr) [%]	concentration in supernatant fluid (55 hr) [mg/mL]	percent remaining (55 hr) [%]
N[C@@H](CCC(=O)O)C(=O)O [L-Glu]	29.350	28.400	96.763	28.740	97.922	28.200	96.082	28.000	95.400
C[C@@H](N)C(=O)O [D-Ala]	19.190	18.590	96.873	18.370	95.727	17.930	93.434	17.580	91.610
N[C@H](CCC(=O)O)C(=O)O [D-Glu]	29.440	29.010	98.539	29.520	100.27	29.350	99.694	29.840	101.36
C[C@H](N)C(=O)O [L-Ala]	19.320	18.960	98.137	18.730	96.946	18.320	94.824	17.830	92.288
